Results: patent US11739100B2, “2,3-dihydro-1h-imidazo{1,2-a}pyrimidin-5-one and this 1,2,3,4-tetrahydropyrimido{1,2-a}pyrimidin-6-one derivatives comprising a substituted morpholine, preparation thereof and pharmaceutical use thereof” (SANOFI, priority 2012, dated 2023)

Target: T1, recombinant Vps34 (Homo sapiens, UniProt Q8NEB9)
T1 construct: purchased Invitrogen PV5126
Experiment: Phosphorylation of phosphatidylinositol (PI) by Vps34 in vitro, ADP detected by TR-FRET (HTRF Transcreener ADP)
Format: biochemical
Settings: 10 μM ATP, 55 μg/ml PI, approximately 3 nM Vps34, 1 hour at ambient temperature; absolute IC50, mean of two independent experiments; read-out: IC50 activity range

T1 sequence (Q8NEB9 whole entry): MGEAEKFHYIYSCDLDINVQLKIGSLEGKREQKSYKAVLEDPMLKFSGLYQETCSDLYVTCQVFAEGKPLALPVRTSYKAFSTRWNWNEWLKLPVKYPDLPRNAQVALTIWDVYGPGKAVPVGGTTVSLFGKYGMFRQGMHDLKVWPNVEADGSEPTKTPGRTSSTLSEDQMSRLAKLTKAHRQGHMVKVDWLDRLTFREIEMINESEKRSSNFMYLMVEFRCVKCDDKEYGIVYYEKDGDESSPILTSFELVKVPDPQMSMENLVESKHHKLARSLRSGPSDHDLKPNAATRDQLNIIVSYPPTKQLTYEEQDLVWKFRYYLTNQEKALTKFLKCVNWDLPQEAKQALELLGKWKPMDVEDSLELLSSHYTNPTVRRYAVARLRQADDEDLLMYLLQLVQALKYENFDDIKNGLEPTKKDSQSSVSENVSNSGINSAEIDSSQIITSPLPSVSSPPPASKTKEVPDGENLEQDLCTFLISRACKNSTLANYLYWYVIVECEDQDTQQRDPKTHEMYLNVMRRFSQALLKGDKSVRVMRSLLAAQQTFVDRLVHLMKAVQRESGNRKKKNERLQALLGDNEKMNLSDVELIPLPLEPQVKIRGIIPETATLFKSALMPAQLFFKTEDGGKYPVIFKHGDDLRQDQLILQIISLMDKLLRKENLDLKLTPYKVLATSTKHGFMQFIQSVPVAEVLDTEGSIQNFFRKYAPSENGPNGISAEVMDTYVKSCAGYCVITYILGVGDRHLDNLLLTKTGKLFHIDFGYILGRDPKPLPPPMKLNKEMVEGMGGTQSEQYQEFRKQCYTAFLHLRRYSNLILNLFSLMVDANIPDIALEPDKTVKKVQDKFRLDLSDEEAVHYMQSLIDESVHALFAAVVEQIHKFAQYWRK

| Compound | IC50 [nM] |
| --- | --- |
| CO[C@H](CN1c2nc(N3C[C@H]4CC[C@@H](C3)O4)cc(=O)n2CC[C@H]1C(F)(F)F)c1ccccc1 [Example 206, (S)-9-((S)-2-Methoxy-2-phenylethyl)-2-(1R,5S)-8-oxa-3-aza-bicyclo[3.2.1]oct-3-yl-8-trifluoromethyl-6,7,8,9-tetrahydro-pyrimido[1,2-a]-pyrimidin-4-one] | < 10 |
| Cc1noc(CN2c3nc(N4CCOC[C@H]4C)c(F)c(=O)n3C[C@@]2(C)C(F)(F)F)n1 [Example 207, (S)-6-Fluoro-2-methyl-7-((R)-3-methyl-morpholin-4-yl)-1-(3-methyl-[1,2,4]oxadiazol-5-yl-methyl)-2-trifluoromethyl-2,3-dihydro-1H-imidazo[1,2-a]-pyrimidin-5-one] | < 10 |
| Cc1noc(CN2c3nc(N4CCOC[C@H]4C)cc(=O)n3C[C@@]2(C)C(F)(F)F)n1 [Example 208, (S)-2-Methyl-7-((R)-3-methylmorpholin-4-yl)-1-(3-methyl-[1,2,4]oxadiazol-5-yl-methyl)-2-trifluoromethyl-2,3-dihydro-1H-imidazo[1,2-a]-pyrimidin-5-one] | 10 to 100 |
| Cc1nc(CN2c3nc(N4CCOC[C@H]4C)cc(=O)n3CC[C@@]2(C)C(F)(F)F)no1 [Example 211, (S)-8-Methyl-2-((R)-3-methylmorpholin-4-yl)-9-(5-methyl-[1,2,4]oxadiazol-3-yl-methyl)-8-trifluoromethyl-6,7,8,9-tetrahydro-pyrimido[1,2-a]-pyrimidin-4-one] | < 10 |
| C[C@@H]1COCCN1c1cc(=O)n2c(n1)N(CC(O)c1ccccn1)[C@H](C(F)(F)F)CC2 (stereo partly drawn) [Example 213, (S)-9-(2-Hydroxy-2-pyridin-2-ylethyl)-2-((R)-3-methyl-morpholin-4-yl)-8-trifluoromethyl-6,7,8,9-tetrahydro-pyrimido[1,2-a]-pyrimidin-4-one] | < 10 |
| C[C@@H]1COCCN1c1cc(=O)n2c(n1)N(Cc1ccnn1C(F)F)[C@](C)(C(F)(F)F)CC2 [Example 214, (S)-9-(2-Difluoromethyl-2H-pyrazol-3-ylmethyl)-8-methyl-2-((R)-3-methylmorpholin-4-yl)-8-trifluoromethyl-6,7,8,9-tetrahydro-pyrimido[1,2-a]-pyrimidin-4-one] | < 10 |
| C[C@@H]1COCCN1c1cc(=O)n2c(n1)N(Cc1ccon1)[C@](C)(C(F)(F)F)CC2 [Example 215, (S)-9-Isoxazol-3-yl-methyl-8-methyl-2-((R)-3-methyl-morpholin-4-yl)-8-trifluoromethyl-6,7,8,9-tetrahydro-pyrimido[1,2-a]-pyrimidin-4-one] | < 10 |
| C[C@@H]1COCCN1c1cc(=O)n2c(n1)N(Cc1ccncc1)[C@H](C(F)(F)F)CC2 [Example 216, (S)-2-((R)-3-Methyl-morpholin-4-yl)-9-pyridin-4-ylmethyl-8-trifluoromethyl-6,7,8,9-tetrahydro-pyrimido[1,2-a]-pyrimidin-4-one] | 10 to 100 |
| C[C@@H]1COCCN1c1cc(=O)n2c(n1)N(Cc1cccnc1)[C@H](C(F)(F)F)CC2 [Example 217, (S)-2-((R)-3-Methyl-morpholin-4-yl)-9-pyridin-3-ylmethyl-8-trifluoromethyl-6,7,8,9-tetrahydro-pyrimido[1,2-a]-pyrimidin-4-one] | < 10 |
| C[C@@H]1COCCN1c1cc(=O)n2c(n1)N(Cc1ccccn1)[C@H](C(F)(F)F)CC2 [Example 218, (S)-2-((R)-3-Methyl-morpholin-4-yl)-9-pyridin-2-ylmethyl-8-trifluoromethyl-6,7,8,9-tetrahydro-pyrimido[1,2-a]-pyrimidin-4-one] | < 10 |
| C[C@@H]1COCCN1c1cc(=O)n2c(n1)N(CCc1ccc(F)cc1)[C@H](C(F)(F)F)CC2 [Example 219, (S)-9-[2-(4-Fluoro-phenyl)ethyl]-2-((R)-3-methylmorpholin-4-yl)-8-trifluoromethyl-6,7,8,9-tetrahydro-pyrimido[1,2-a]-pyrimidin-4-one] | < 10 |
| C[C@@H]1COCCN1c1cc(=O)n2c(n1)N(CCc1ccccn1)[C@H](C(F)(F)F)CC2 [Example 220, (S)-2-((R)-3-Methyl-morpholin-4-yl)-9-(2-pyridin-2-ylethyl)-8-trifluoromethyl-6,7,8,9-tetrahydro-pyrimido[1,2-a]-pyrimidin-4-one] | < 10 |
| C[C@@H]1COCCN1c1cc(=O)n2c(n1)N(Cc1cccnc1F)[C@H](C(F)(F)F)CC2 [Example 221, (S)-9-(2-Fluoropyridin-3-ylmethyl)-2-((R)-3-methylmorpholin-4-yl)-8-trifluoromethyl-6,7,8,9-tetrahydro-pyrimido[1,2-a]-pyrimidin-4-one] | < 10 |
| C[C@@H]1COCCN1c1cc(=O)n2c(n1)N(CC(=O)N(C)C)[C@H](C(F)(F)F)CC2 [Example 222, N,N-Dimethyl-2-[(S)-8-((R)-3-methyl-morpholin-4-yl)-6-oxo-2-trifluoromethyl-3,4-dihydro-2H,6H-pyrimido[1,2-a]-pyrimidin-1-yl]-acetamide] | 10 to 100 |
| CNC(=O)CN1c2nc(N3CCOC[C@H]3C)cc(=O)n2CC[C@H]1C(F)(F)F [Example 223, N-Methyl-2-[(S)-8-((R)-3-methylmorpholin-4-yl)-6-oxo-2-trifluoromethyl-3,4-dihydro-2H,6H-pyrimido[1,2-a]-pyrimidin-1-yl]-acetamide] | 10 to 100 |
| C[C@@H]1COCCN1c1cc(=O)n2c(n1)N(Cc1cccc(F)n1)[C@H](C(F)(F)F)CC2 [Example 224, (S)-9-(6-Fluoropyridin-2-ylmethyl)-2-((R)-3-methylmorpholin-4-yl)-8-trifluoromethyl-6,7,8,9-tetrahydro-pyrimido[1,2-a]-pyrimidin-4-one] | < 10 |
| CC(C)Oc1cc(CN2c3nc(N4CCOC[C@H]4C)cc(=O)n3CC[C@H]2C(F)(F)F)ccn1 [Example 225, (S)-9-(2-Isopropoxy-pyridin-4-ylmethyl)-2-((R)-3-methyl-morpholin-4-yl)-8-trifluoromethyl-6,7,8,9-tetrahydro-pyrimido[1,2-a]-pyrimidin-4-one] | < 10 |
| CC(C)c1noc(CN2c3nc(N4CCOC[C@H]4C)cc(=O)n3CC[C@H]2C(F)(F)F)n1 [Example 226, (S)-9-(3-Isopropyl-[1,2,4]oxadiazol-5-yl-methyl)-2-((R)-3-methylmorpholin-4-yl)-8-trifluoromethyl-6,7,8,9-tetrahydro-pyrimido[1,2-a]-pyrimidin-4-one] | < 10 |
| C[C@@H]1COCCN1c1cc(=O)n2c(n1)N(Cc1nc(C3CC3)no1)[C@H](C(F)(F)F)CC2 [Example 227, (S)-9-(3-Cyclopropyl-[1,2,4]oxadiazol-5-yl-methyl)-2-((R)-3-methylmorpholin-4-yl)-8-trifluoromethyl-6,7,8,9-tetrahydro-pyrimido[1,2-a]-pyrimidin-4-one] | < 10 |
| C[C@@H]1COCCN1c1cc(=O)n2c(n1)N(Cc1nc(C(C)(C)C)no1)[C@H](C(F)(F)F)CC2 [Example 228, (S)-9-(3-tert-Butyl-[1,2,4]oxadiazol-5-yl-methyl)-2-((R)-3-methylmorpholin-4-yl)-8-trifluoromethyl-6,7,8,9-tetrahydro-pyrimido[1,2-a]-pyrimidin-4-one] | < 10 |
| CC(C)Oc1ccc(CN2c3nc(N4CCOC[C@H]4C)cc(=O)n3CC[C@H]2C(F)(F)F)cn1 [Example 229, (S)-9-(6-Isopropoxy-pyridin-3-ylmethyl)-2-((R)-3-methyl-morpholin-4-yl)-8-trifluoromethyl-6,7,8,9-tetrahydro-pyrimido[1,2-a]-pyrimidin-4-one] | < 10 |
| CC(C)Oc1ncccc1CN1c2nc(N3CCOC[C@H]3C)cc(=O)n2CC[C@H]1C(F)(F)F [Example 230, (S)-9-(2-Isopropoxy-pyridin-3-ylmethyl)-2-((R)-3-methyl-morpholin-4-yl)-8-trifluoromethyl-6,7,8,9-tetrahydro-pyrimido[1,2-a]-pyrimidin-4-one] | < 10 |
| C[C@@H]1COCCN1c1cc(=O)n2c(n1)N(Cc1nccs1)[C@H](C(F)(F)F)CC2 [Example 231, (S)-2-((R)-3-Methyl-morpholin-4-yl)-9-thiazol-2-ylmethyl-8-trifluoromethyl-6,7,8,9-tetrahydro-pyrimido[1,2-a]-pyrimidin-4-one] | < 10 |
| C[C@@H]1COCCN1c1nc2n(c(=O)c1F)CC[C@@H](C(F)(F)F)N2Cc1nccs1 [Example 232, (S)-3-Fluoro-2-((R)-3-methylmorpholin-4-yl)-9-thiazol-2-ylmethyl-8-trifluoromethyl-6,7,8,9-tetrahydro-pyrimido[1,2-a]-pyrimidin-4-one] | < 10 |
| C[C@@H]1COCCN1c1cc(=O)n2c(n1)N(CC(=O)N1CCCCC1)[C@H](C(F)(F)F)CC2 [Example 233, (S)-2-((R)-3-Methyl-morpholin-4-yl)-9-(2-oxo-2-piperidin-1-yl-ethyl)-8-trifluoromethyl-6,7,8,9-tetrahydro-pyrimido[1,2-a]-pyrimidin-4-one] | < 10 |
| C[C@@H]1COCCN1c1cc(=O)n2c(n1)N(CC(=O)N1CCOCC1)[C@H](C(F)(F)F)CC2 [Example 234, (S)-2-((R)-3-Methyl-morpholin-4-yl)-9-(2-morpholin-4-yl-2-oxo-ethyl)-8-trifluoromethyl-6,7,8,9-tetrahydro-pyrimido[1,2-a]-pyrimidin-4-one] | 10 to 100 |
| C[C@@H]1COCCN1c1nc2n(c(=O)c1F)CC[C@@H](C(F)(F)F)N2CC(=O)N1CCOCC1 [Example 235, (S)-3-Fluoro-2-((R)-3-methylmorpholin-4-yl)-9-(2-morpholin-4-yl-2-oxoethyl)-8-trifluoromethyl-6,7,8,9-tetrahydro-pyrimido[1,2-a]-pyrimidin-4-one] | 10 to 100 |
| C[C@@H]1COCCN1c1cc(=O)n2c(n1)N(CC(=O)Nc1ccccc1)[C@H](C(F)(F)F)CC2 [Example 236, 2-[(S)-8-((R)-3-Methyl-morpholin-4-yl)-6-oxo-2-trifluoromethyl-3,4-dihydro-2H,6H-pyrimido[1,2-a]-pyrimidin-1-yl]-N-phenyl-acetamide] | 10 to 100 |
| C[C@@H]1COCCN1c1nc2n(c(=O)c1F)CC[C@@H](C(F)(F)F)N2CC(=O)N1CCCCC1 [Example 237, (S)-3-Fluoro-2-((R)-3-methylmorpholin-4-yl)-9-(2-oxo-2-piperidin-1-ylethyl)-8-trifluoromethyl-6,7,8,9-tetrahydro-pyrimido[1,2-a]-pyrimidin-4-one] | < 10 |
